Test: Relaxometric properties: longitudinal relaxivity r1p measurement
Type: physicochemical
Settings: per mM Gd; for r1p at 0.47 T 37° C., human plasma / r1p at 0.47 T 37° C., saline: 0.47 T (20 MHz); for r1p at 0.47 T 37° C., saline / r1p at 1.41 T 37° C., saline: physiologic solution; for r1p at 1.41 T 37° C., human plasma / r1p at 1.41 T 37° C., saline: 1.41 T (60 MHz)
Protocol: The relaxometric properties of some representative complex compounds according to the invention have been determined at different magnetic field strengths, e.g. including 0.47 and 1.41 T, at 37° C. and in different media (physiologic solution and human plasma) and compared with relaxivity values measured, at the same conditions, for some Gd-Complex of the market having an analogous cyclic coordination cage.
The longitudinal water proton relaxation rate (R1=1/T1) was measured at 0.47 T with a Minispec MQ-20 spectrometer (Bruker Biospin, Germany) operating at a proton Larmor frequency of 20 MHz; MR experiments at 1.41 T were performed using a Minispec MQ-60 spectrometer (Bruker Biospin, Germany) operating at a proton Larmor frequency of 60 MHz.
All test articles were used as supplied and diluted in the selected medium (physiologic solution or human plasma) by weighting the required amount of paramagnetic chelated complex to get a 5 or 10 mM starting solution.
Five different concentration samples (0.1, 0.25, 0.5, 0.75 and 1 mM) for each medium have been prepared by further dilution of the starting 5 or 10 mM solution.
Relaxivity measurements were performed at 0.47 T and 1.41 T at a preset temperature sample of 37° C., kept constant by means of a thermostatic bath connected to the sample holder of the spectrometer. The five sample solutions have been preliminary pre-heated at 37° C. in an external thermostatic bath and then left 10 minutes inside the internal bath to assure the stabilization of the temperature. Longitudinal relaxation time T1 was measured by means of a standard inversion recovery sequence, where the inversion time (TI) was varied from 10 ms to at least 5 times T1 in 15 steps. Statistical analysis (mono-exponential fitting for T1 measurement, linear fitting for the evaluation of longitudinal relaxivity) was performed by Mathematica® (Wolfram, USA). Errors on the estimated parameters were evaluated by the fitting procedure.

SMILES	r1p at 0.47 T 37° C., human plasma [mM⁻¹ s⁻¹]	r1p at 0.47 T 37° C., saline [mM⁻¹ s⁻¹]	r1p at 1.41 T 37° C., human plasma [mM⁻¹ s⁻¹]	r1p at 1.41 T 37° C., saline [mM⁻¹ s⁻¹]
O=C(O)CN1CCN(CC(=O)O)CCN(CC(O)CN(CC(=O)O)CC(O)CN2CCN(CC(=O)O)CCN(CC(=O)O)CCN(CC(=O)O)CC2)CCN(CC(=O)O)CC1 (stereo not shown)	9.7	8.3	9.2	8.5
O=C(O)CN1CCN(CC(=O)O)CCN(CC(O)CN(CC(O)CN2CCN(CC(=O)O)CCN(CC(=O)O)CCN(CC(=O)O)CC2)CP(=O)(O)O)CCN(CC(=O)O)CC1 (stereo not shown) [Chelate Complex 2]	12.0	9.0	11.3	9.3
O=C(O)CN1CCN(CC(=O)O)CCN(CC(O)CN(CC(O)CN2CCN(CC(=O)O)CCN(CC(=O)O)CCN(CC(=O)O)CC2)CC(O)C(O)C(O)C(O)CO)CCN(CC(=O)O)CC1 (stereo not shown)	11.5	9.3	10.8	9.4
O=C(O)CN1CCN(CC(=O)O)CCN(CC(O)CN(CCN(CC(=O)O)CC(O)CN2CCN(CC(=O)O)CCN(CC(=O)O)CCN(CC(=O)O)CC2)CC(=O)O)CCN(CC(=O)O)CC1 (stereo not shown)	10.6	7.3	10.2	7.5
